Assay results as given in ChEMBL document CHEMBL1124041, “Conformational and steric aspects of the inhibition of phenylethanolamine N-methyltransferase by benzylamines” (J Med Chem, 1988).

Assays:
[1] = target: T1, Phenylethanolamine N-methyltransferase (Bos taurus) (UniProt P10938); assay: Acid dissociation constant of phenylethanolamine N-methyl-transferase (PNMT) inhibition
T1 sequence (whole entry): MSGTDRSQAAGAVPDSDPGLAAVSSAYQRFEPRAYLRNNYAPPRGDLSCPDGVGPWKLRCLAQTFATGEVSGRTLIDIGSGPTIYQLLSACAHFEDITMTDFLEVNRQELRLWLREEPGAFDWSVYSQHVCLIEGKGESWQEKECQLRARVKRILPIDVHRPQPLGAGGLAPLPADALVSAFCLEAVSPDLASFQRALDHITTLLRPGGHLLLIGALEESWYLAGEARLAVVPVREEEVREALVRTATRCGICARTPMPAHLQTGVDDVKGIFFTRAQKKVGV

[2] = target: T1, Phenylethanolamine N-methyltransferase (Bos taurus); assay: Molar pI50 value for phenylethanolamine N-methyl-transferase (PNMT) inhibition
[3] = target: T2, Phenylethanolamine N-methyltransferase (Bos taurus, UniProt P10938); assay: Inhibition of phenylethanolamine N-methyl-transferase (PNMT)
T2 sequence (P10938 whole entry): T1 sequence (whole entry)

| Structure (SMILES) | pKa [1] | pI50 [2] | Ki [3] |
| --- | --- | --- | --- |
| COc1ccc(CN)cc1 | 9.51 | 2.78 M |  |
| c1cc2c3c(c1)CC[C@@H]3CCC2 |  |  | 52 µM |
| NC1CC2C[C@@H]1c1ccccc12 (some centres not stated) |  |  | 479 µM |
| NCc1ccc(Cl)cc1 | 9.14 | 4.07 M |  |
| c1ccc2c(c1)CC1CC[C@H]2N1 |  |  | 153 µM |
| NCc1ccc(F)cc1 | 9.3 | 3.17 M |  |
| NCc1ccccc1 | 9.38 |  |  |
| CC1Cc2ccccc2CN1 (configuration not stated) |  |  | 3 µM |
| NCc1cccc(Cl)c1 | 9.01 | 5.07 M |  |
| N[C@@H]1CC2CCC1c1ccccc12 (some centres not stated) |  |  | > 1000 µM |
| Cc1ccc(CN)cc1 | 9.54 | 3.16 M |  |
| c1ccc2c(c1)C1CC[C@H]2NC1 |  |  | > 2000 µM |
| c1ccc2c(c1)C1CC[C@H]2N1 |  |  | > 2000 µM |
| NCc1cccc(Cl)c1Cl | 7.35 |  |  |
| NCc1ccc(Br)cc1 | 9.13 | 4.37 M |  |
| Cc1cccc(CN)c1 | 9.45 | 3.82 M |  |
| NCc1cccc(F)c1 | 9.04 | 4 M |  |
| NCc1cccc(Br)c1 | 8.98 | 5.17 M |  |
